Test: molar heat capacity at constant pressure
Conditions: 101.33 kPa, Crystal, Small sample (50 mg) DSC

[F][Lu]([F])[F] [lutetium(III) fluoride]
Conditions | molar heat capacity at constant pressure [J/K/mol]
399.7 K | 96.75
405.1 K | 97.02
410.5 K | 95.88
415.8 K | 95.29
421.1 K | 96.94
426.3 K | 97.01
431.5 K | 96.43
436.7 K | 96.58
441.9 K | 96.64
447.1 K | 96.86
452.2 K | 96.8
457.3 K | 96.65
462.5 K | 95.51
467.6 K | 96.35
472.6 K | 96.98
477.7 K | 97.09
482.8 K | 97.11
487.8 K | 97.26
492.9 K | 97.48
497.9 K | 97.58
502.9 K | 97.68
508 K | 97.97
513 K | 98.13
518 K | 98.36
523 K | 98.49
528 K | 98.56
533.1 K | 98.68
538.1 K | 98.84
543.1 K | 98.87
548.1 K | 99.13
553.1 K | 99.24
558.1 K | 99.48
563.1 K | 99.09
568.1 K | 99.13
573.1 K | 99.33
578.1 K | 99.5
583.1 K | 99.58
588 K | 99.58
593 K | 99.6
598 K | 99.71
603 K | 99.98
608 K | 100.29
613 K | 100.45
618 K | 100.4
623 K | 100.24
627.9 K | 100.69
632.9 K | 101.13
637.9 K | 100.84
642.9 K | 101.01
647.9 K | 101.38
652.9 K | 101.53
657.9 K | 101.67
662.8 K | 101.64
667.8 K | 101.51
672.8 K | 101.61
677.8 K | 101.89
682.8 K | 102.02
687.8 K | 102.07
692.8 K | 102.12
697.7 K | 102.26
702.7 K | 102.44
707.7 K | 102.41
712.7 K | 102.81
717.7 K | 102.66
722.7 K | 102.97
727.6 K | 102.82
732.6 K | 104.53
737.6 K | 104.75
742.6 K | 104.55
747.6 K | 104.86
752.6 K | 105.12
757.6 K | 104.68
762.6 K | 103.97
767.5 K | 102.8
772.5 K | 103.35
777.5 K | 103.53
782.5 K | 103
787.5 K | 103.29
792.5 K | 103.69
797.5 K | 103.87
802.4 K | 103.76
807.4 K | 104.24
812.4 K | 103.94
817.4 K | 104.08
822.4 K | 104.49
827.4 K | 104.53
832.4 K | 104.46
837.4 K | 104.64
842.3 K | 104.66
847.3 K | 104.56
852.3 K | 104.93
857.3 K | 104.87
862.3 K | 104.94
867.3 K | 105.55
872.3 K | 105.31
877.3 K | 105.62
882.2 K | 105.71
887.2 K | 105.77
892.2 K | 105.39
897.2 K | 105.26
902.2 K | 105.24
907.2 K | 105.2
912.2 K | 105.01
917.2 K | 103.22
922.2 K | 101.86
927.1 K | 101.4
932.1 K | 101.32
937.1 K | 102.01
942.1 K | 103.86
947.1 K | 104.24
952.1 K | 104.41
957.1 K | 104.36
962.1 K | 105.18
967.1 K | 105.18
972.1 K | 104.61
977 K | 104.97
982 K | 105.26
987 K | 104.58
992 K | 104.27
997 K | 104.7
1002 K | 104.37
1007 K | 105.57
1012 K | 107.7
1017 K | 107.28
1022 K | 106.62
1027 K | 106.36
1031.9 K | 106.14
1036.9 K | 106.21
1041.9 K | 106.18
1046.9 K | 106.45
1051.9 K | 105.23
1056.9 K | 104.62
1061.9 K | 103.86
1066.9 K | 102.81
1071.9 K | 104.66
1076.9 K | 107.09
1081.9 K | 107.68
1086.9 K | 108.09
1091.9 K | 108.21
1096.9 K | 108.47
1101.9 K | 108.65
1106.9 K | 108.92
1111.9 K | 108.53
1116.9 K | 109.02
1121.9 K | 108.84
1126.9 K | 109.6
1131.9 K | 109.55
1136.9 K | 109.42
1141.8 K | 108.84
1146.8 K | 109.13
1151.8 K | 109.39
1156.8 K | 108.91
1161.8 K | 108.91
1166.8 K | 109.26
1171.8 K | 109.47
1176.8 K | 109.96
1181.8 K | 108.7
1186.8 K | 107.48
1191.8 K | 106.02
1196.8 K | 104.98
1201.8 K | 104.23
1206.8 K | 104.19
1211.8 K | 107.96

Reference: the NIST ThermoML archive (doi:10.1016/j.tca.2012.11.015)
